From paper PMC2573961 (PLoS ONE, 2008)
Each block holds one sequence with its values, some of them ahead of it. No end group written: not given here.

Experiments:
ERAP1 [1] = experiment: 40 ng of ERAP1 in 20 mM Tris pH 8 buffer containing 100 mM NaCl; conditions: human, 37°C, up to 1 hr
ERAP1 [2] = experiment: 40 ng ERAP1; conditions: human, 37°C, up to 1 hr
ERAP1 [3] = experiment: purified recombinant ERAP1 (alanine scan); conditions: human
ERAP1 [4] = experiment: 7.8 nM of ERAP1; conditions: human, 37°C, up to 1 hr
ERAP1 [5] = experiment: ERAP1, trimming rate measurements (pmol/µg ERAP1×sec); conditions: human
ERAP1 [6] = experiment: 800 nM ERAP1; conditions: human, 37°C, up to 1 hr
[7] = tested on: ERAP1 (recombinant, Hi5 insect cells); experiment: purified recombinant ERAP1 in 20 mM Tris pH 8, 100 mM NaCl; conditions: human, 37°C, up to 1 hr
ERAP1 [8] = experiment: 15.6 nM of ERAP1; conditions: human, 37°C, up to 1 hr
ERAP1 [9] = experiment: 1 nM ERAP1; conditions: human, 37°C, up to 1 hr
human recombinant ERAP1 = target: T1, human recombinant ERAP1 (Homo sapiens, UniProt Q9NZ08); experiment: N-terminus trimming of model peptides by ERAP1, products analysed by reverse-phase HPLC; format: biochemical; conditions: alanine scan, 40 ng of ERAP1, three separate experiments in parallel; RP-HPLC; Figure 3A
T1 construct: we over-expressed human recombinant full-length ERAP1 in insect cell suspension culture; hexa-His (C); myc; made in house; host or cells: Hi5 insect cells (baculovirus; virus made in SF9 cells)
Protocol: Human recombinant ERAP1 was produced in Hi5 insect cells grown in Excel405™ serum free medium, after infection by baculovirus carrying the ERAP1 gene with a C-terminal hexa-His tag. The enzyme was secreted into the cell medium, which was harvested by centrifugation (3000 rpm, 30 min, 4°C, GSA rotor) in a Sorvall centrifuge. The cell supernatant was subjected to 3 rounds of buffer exchange (10 fold dilution each time) using a large scale diafiltration apparatus versus 5 mM phosphate buffer at pH 7 containing 100 mM NaCl. The supernatant was then concentrated and its composition adjusted to 50 mM phosphate (pH 8), 300 mM NaCl, 10 mM imidazole and immediately loaded onto a HiTrap™ chelating column (Qiagen) that was pre-loaded with Ni(II)SO4. The column was washed with the same buffer containing 20 mM imidazole and the protein was eluted using a 20 mM to 150 mM imidazole gradient. […]
The digestion of model peptides by ERAP1 was followed by analysis of peptide products of the digestion on a reverse phase C18 column (Higgins Analytical 0546-C183). […] The elution was done with a 5% to 40% acetonitrile gradient at 1 ml/min, while following the absorbance at 214 nm or 280 nm. […]
Figure 1 Typical chromatogram of peptide product analysis after ERAP1 digestion. Samples were analyzed by HPLC reverse phase chromatography. […]

T1 sequence (Q9NZ08 1-948 isoform Q9NZ08-2): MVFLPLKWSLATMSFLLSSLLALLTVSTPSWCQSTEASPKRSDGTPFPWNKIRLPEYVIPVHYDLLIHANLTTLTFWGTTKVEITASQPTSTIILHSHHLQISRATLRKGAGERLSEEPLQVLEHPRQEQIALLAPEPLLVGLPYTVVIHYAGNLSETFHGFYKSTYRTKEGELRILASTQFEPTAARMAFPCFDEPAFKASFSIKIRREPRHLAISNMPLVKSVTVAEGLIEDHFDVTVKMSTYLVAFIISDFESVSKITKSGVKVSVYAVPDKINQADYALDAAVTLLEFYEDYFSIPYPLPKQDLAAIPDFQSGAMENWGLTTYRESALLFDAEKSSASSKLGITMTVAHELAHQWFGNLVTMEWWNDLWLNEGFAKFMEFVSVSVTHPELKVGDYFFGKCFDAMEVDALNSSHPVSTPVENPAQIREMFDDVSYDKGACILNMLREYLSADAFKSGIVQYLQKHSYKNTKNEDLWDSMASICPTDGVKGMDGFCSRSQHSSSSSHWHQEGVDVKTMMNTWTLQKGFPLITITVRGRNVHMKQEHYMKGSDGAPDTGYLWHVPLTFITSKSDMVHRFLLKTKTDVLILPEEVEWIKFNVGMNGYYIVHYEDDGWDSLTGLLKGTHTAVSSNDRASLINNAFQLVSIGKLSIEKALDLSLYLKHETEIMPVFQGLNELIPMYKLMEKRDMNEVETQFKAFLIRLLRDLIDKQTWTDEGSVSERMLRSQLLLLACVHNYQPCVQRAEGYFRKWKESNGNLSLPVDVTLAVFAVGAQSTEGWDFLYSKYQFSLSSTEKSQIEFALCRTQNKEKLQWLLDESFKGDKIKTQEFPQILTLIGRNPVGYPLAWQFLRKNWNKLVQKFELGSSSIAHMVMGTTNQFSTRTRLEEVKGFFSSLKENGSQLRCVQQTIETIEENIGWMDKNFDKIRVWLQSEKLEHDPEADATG

Sequence: LAAALSIINFEKL
not cleaved (ERAP1 [2]): resistant to any trimming after 1 hr
not cleaved (ERAP1 [1]): resistant to any trimming after 1 hr

Sequence: LYWANATRSG
cleaved bond (ERAP1 [3]): L-Y
cleaved bond (ERAP1 [1]): L-Y

Sequence: LYWANAARSG
cleaved bond (ERAP1 [1]): L-Y

Sequence: LSIINFEKL
cleaved bond (ERAP1 [4]): L-S
cleaved bond (ERAP1 [1]): L-S, 1 hr

Sequence: LYWANATASG
not cleaved (ERAP1 [3]): Less than 1% trimming
cleaved bond (ERAP1 [5]): L-Y

Sequence: LSIINFEAL
cleaved bond (ERAP1 [4]): L-S, 1 hr

Sequence: LYAANATRSG
cleaved bond (ERAP1 [1]): L-Y

Sequence: LTAEEAVET
cleaved bond (ERAP1 [5]): L-T
not cleaved (ERAP1 [6]): completely resistant to trimming after 1 hr with 800 nM ERAP1

Sequence: FYWANATRSG
cleaved bond [7]: F-Y, 1 hr
cleaved bond (ERAP1 [1]): F-Y, 1 hr

Sequence: LVNVDYSKL
cleaved bond (ERAP1 [8]): L-V, 1 hr

Sequence: MYWANATRSG
cleaved bond (ERAP1 [1]): M-Y

Sequence: LVAFKARKF
cleaved bond (ERAP1 [9]): L-V, 1 hr

Sequence: LVNVDYSAL
cleaved bond (ERAP1 [8]): L-V, 1 hr

Sequence: LSIINFEKLAAAL
cleaved bond (ERAP1 [1]): L-S, 1 hr

Other lines, results leading:

cleaved bond (ERAP1 [1]): L-Y
Sequence: LYWANATRSA

cleaved bond (ERAP1 [1]): L-A
Sequence: LAWANATRSG

cleaved bond (ERAP1 [1]): A-Y
Sequence: AYWANATRSG

cleaved bond (ERAP1 [1]): L-Y
Sequence: LYWAAATRSG

cleaved bond (ERAP1 [1]): L-Y
Sequence: LYWANATRAG

percent N-terminus trimming detected (human recombinant ERAP1): Less than 1%
Sequence: LYWANATASG [LYWANATASG]
